# Results published in patent US7094909B2, “HIV protease inhibitors, compositions containing the same, their pharmaceutical uses and materials for their synthesis” (priority 2001, dated 2006).
# Target: T1, HIV-1 protease (Q7S mutant form) (Human immunodeficiency virus type 1 group M subtype B, UniProt P04585, Q495S)
# T1 construct: made in house
# Assay: HIV-1 Protease RET assay
# Type: biochemical
# Conditions: Ki, unit inferred
# Experimental: Ki's for the inhibitors of HIV-1 protease were determined using a resonance energy transfer (RET) assay. […] This enzyme is first partially purified as inclusion bodies from cell lysate. It is then solublized in 8M urea and passed through a Q-Sepharose column (Pharmacia) for further purification. To refold this protein, samples containing Q7S is dialyzed into 50 mM sodium phosphate pH 7.0, 50 mM NaCl, 10 mM DTT, and 10% glycerol.
# The commercially available peptide substrate (Molecular Probes Cat. # H-2930) RE(EDANS)SQNYPIVQK(DABCYL)R is used to assess activity and Ki's. This peptide is cleaved quantitatively by HIV-1 Pr at the Tyr-Pro bond. The EDANS fluorophore absorbs at 340 nm and emits at 490 nm. The reaction is carried out in a 96 well plate in a total volume of 100 µL and is run for 12 minutes at 37 C under steady-state conditions with 5 µM substrate and 2 nM active dimer enzyme concentration. The literature value Km for this substrate and enzyme is 103+/−8 µM (See Matayoshi, et al., “Novel Fluorogenic Substrates for Assaying Retroviral Proteases by Resonance Energy Transfer,” Science 247, 954 (1990)). The buffer for this reaction is 0.1M sodium acetate pH 4.8, 1M NaCl, 1 mM EDTA, 5 mM dithiothreitol, 10% dimethyl sulfoxide and 1 mg/ml bovine serum albumin. Inhibition curves are fit using the Morrison tight binding equation.
row,Compound,Ki
1,Cc1ccccc1CNC(=O)[C@H]1N(C(=O)[C@@H](O)[C@H](Cc2ccccc2)NC(=O)Oc2ccc(Cl)cc2)CSC1(C)C,468 nM
2,Cc1ccccc1CNC(=O)[C@H]1N(C(=O)[C@@H](O)[C@H](Cc2ccccc2)NC(=O)Oc2ccccc2)CSC1(C)C,368 nM
3,Cc1ccccc1CNC(=O)[C@H]1N(C(=O)[C@@H](O)[C@H](Cc2ccccc2)NS(=O)(=O)c2ccccc2)CSC1(C)C,152 nM
4,CC1(C)SCN(C(=O)[C@@H](O)[C@H](Cc2ccccc2)NC(=O)[C@@H]2CCCO2)[C@@H]1C(=O)NC[C@H]1CCCO1,30 nM
5,CC1(C)SCN(C(=O)[C@@H](O)[C@H](Cc2ccccc2)NC(=O)c2cccc3c2CCN3)[C@@H]1C(=O)NCc1cccs1,6.8 nM
6,CC1(C)SCN(C(=O)[C@@H](O)[C@H](Cc2ccccc2)NC(=O)CSc2nc[nH]n2)[C@@H]1C(=O)NCc1cccs1,13.9 nM
7,CC(C)(C)OC(=O)N[C@@H](Cc1ccccc1)[C@H](O)C(=O)N1CSC(C)(C)[C@H]1C(=O)NCc1ccccc1,21 nM
8,Cc1ccccc1CNC(=O)[C@H]1N(C(=O)[C@@H](O)[C@H](Cc2ccccc2)NC(=O)COc2cccc3ncccc23)CSC1(C)C,14.2 nM
9,Cc1ccccc1CNC(=O)[C@H]1N(C(=O)[C@@H](O)[C@H](Cc2ccccc2)NC(=O)COc2cccc3cnccc23)CSC1(C)C,21 nM
10,CC(C)(C)OC(=O)N[C@@H](Cc1ccccc1)[C@H](O)C(=O)N1CSC(C)(C)C1C(=O)NCc1ccccc1Cl (stereo partly shown),20 nM
11,CC(C)(C)OC(=O)N[C@@H](Cc1ccccc1)[C@H](O)C(=O)N1CSC(C)(C)C1C(=O)NCc1c(F)cccc1F (stereo partly shown),54 nM
12,COc1ccc(CNC(=O)C2N(C(=O)[C@@H](O)[C@H](Cc3ccccc3)NC(=O)OC(C)(C)C)CSC2(C)C)cc1 (stereo partly shown),25 nM
13,Cc1ccccc1CNC(=O)[C@H]1N(C(=O)[C@@H](O)[C@H](Cc2ccccc2)NC(=O)COc2cccnc2Cl)CSC1(C)C,7.6 nM
14,Cc1ccccc1CNC(=O)[C@H]1N(C(=O)[C@@H](O)[C@H](Cc2ccccc2)NC(=O)COc2cccnc2C)CSC1(C)C,17 nM
15,COc1ccc(CNC(=O)N[C@@H](Cc2ccccc2)[C@H](O)C(=O)N2CSC(C)(C)C2C(=O)NCc2ccc(OC)cc2)cc1 (stereo partly shown),7.8 nM
16,COc1cccc(CNC(=O)[C@H]2N(C(=O)[C@@H](O)[C@H](Cc3ccccc3)NC(=O)C=C(C)C)CSC2(C)C)c1,125 nM
17,CC(C)=CC(=O)N[C@@H](Cc1ccccc1)[C@H](O)C(=O)N1CSC(C)(C)[C@H]1C(=O)NCc1ccccc1C,6.1 nM
18,CCc1cccc(CNC(=O)[C@H]2N(C(=O)[C@@H](O)[C@H](Cc3ccccc3)NC(=O)NCc3ccc(OC)cc3)CSC2(C)C)c1,59 nM
19,Cc1ccccc1CNC(=O)[C@H]1N(C(=O)[C@@H](O)[C@H](Cc2ccccc2)NC(=O)/C=C/c2ccco2)CSC1(C)C,60 nM
20,CCCNC(=O)C1CC(F)(F)CN1C(=O)[C@@H](O)[C@H](Cc1ccccc1)NC(=O)c1cccc(OC(C)=O)c1C (stereo partly shown),85 nM
21,Cc1ccccc1CNC(=O)[C@H]1N(C(=O)[C@@H](O)[C@H](Cc2ccccc2)NC(=O)CNC(=O)OC(C)(C)C)CSC1(C)C,88 nM
22,Cc1ccccc1CNC(=O)[C@H]1N(C(=O)[C@@H](O)[C@H](Cc2ccccc2)NC(=O)/C=C/c2cccnc2)CSC1(C)C,9.9 nM
23,Cc1ccccc1CNC(=O)[C@H]1N(C(=O)[C@@H](O)[C@H](Cc2ccccc2)NC(=O)C(C)CNC(=O)OC(C)(C)C)CSC1(C)C (stereo partly shown),52 nM
24,Cc1ccccc1CNC(=O)[C@@H]1N(C(=O)[C@@H](O)[C@H](Cc2ccccc2)NC(=O)c2cccc(O)c2C)CSC12CCC2,30 nM
25,Cc1c(C(=O)N[C@@H](Cc2ccccc2)[C@H](O)C(=O)N2CSC(C)(C)[C@H]2C(=O)N[C@@H]2C=CCCC2)ccc(F)c1O,17.3 nM
26,Cc1c(O)cccc1C(=O)N[C@@H](Cc1ccccc1)[C@H](O)C(=O)C1CCC2(CCCC2)[C@@H]1C(=O)NC1=CCCCC1 (stereo partly shown),53 nM
27,Cc1c(O)cccc1C(=O)N[C@@H](Cc1ccccc1)[C@H](O)C(=O)N1CSC2(CCC2)[C@@H]1C(=O)N[C@@H]1C=CCCC1,12.9 nM
28,Cc1c(O)cccc1C(=O)N[C@@H](Cc1ccccc1)[C@H](O)C(=O)N1CSC(C)(C)C1C(=O)NCCc1ccccn1 (stereo partly shown),134 nM
